Experiments:
[1] = system: intracerebrally implanted L-1210; assay: Antitumor activity against intracerebrally (i.c.) implanted L-1210 in mice; type: in vivo; conditions: 50 mg/kg/day × 5 i.p.; for Survivors on day 35: groups of 8 mice; for Percent T/C: values as of 35th day
Description: Effects of the conjugate on i.c. implanted L-1210 in mice were also studied. A mouse (C3 D2 F1 /J, female, avg. wt. 20 g) was anesthesized with diethyl ether, the right parietal scalp was washed with 70 percent ethanol, a 27 G 1/2 needle with a guard placed on the outside of the barrel 1.5 mm from the top of the bevel, was inserted through the skull and 1×10^5 cells in 0.05 ml suspension were inoculated into the mouse. The conjugate in 0.9 percent NaCl (0.5 ml) was administered intraperitoneally once daily. Treatment began 24 h after implantation and continued for 5 consecutive days. Control animals received a 0.5 ml injection of saline. Testing was followed as described in the NCI protocol and evaluated by recording the survival time according to the formula appearing in protocol 11.

[2] = system: i.p. implanted L-1210 leukemia; assay: Antitumor activity against i.p. implanted L-1210 leukemia in mice; type: in vivo; conditions: for response vs control in vivo at 25 mg/kg: read-out: Percent T/C (mean survival days treated/control × 100), 25 mg/kg/day × 5 i.p.; for response vs control in vivo at 50 mg/kg: read-out: Percent T/C (mean survival days treated/control × 100), 50 mg/kg/day × 5 i.p.; for response vs control in vivo at 75 mg/kg: read-out: Percent T/C (mean survival days treated/control × 100), 75 mg/kg/day × 5 i.p.; for response vs control in vivo at 100 mg/kg: read-out: Percent T/C (mean survival days treated/control × 100), 100 mg/kg/day × 5 i.p.; for ascitic fluid at the end of the dosage period (5th day) / day on which mice started to accumulate ascitic fluid: doses between 25 and 75 mg/kg/day
Description: The ascites cell form of L-1210 leukemia, grown in C3 D2 F1 /J female mice (supplied by Jackson Labs) were employed. The assay was performed according to National Cancer Institute (NCI) protocol 1.100 described by R. I. Gerau et al., Cancer Chemother. Rep. (Part 3) 3: (2): 7, 47 (1972) with a slight modification. Intraperitoneal implantation of 1×10^6 cells in 0.5-ml suspension to the control and the treated groups (each group comprised 8 C3 D2 F1 /J female mice, average wt 20 g) was carried out using donor mice (DBA/2Ha, supplied by Roswell Park Memorial Institute) bearing 3 day tumor growths. Compounds were dissolved in 0.9 percent NaCl and a 0.5 ml dose was administered intraperitoneally once daily. Treatment began 24 h after implantation and continued for 5 consecutive days. Control animals received a 0.5 ml injection of saline. Testing was followed as described in the NCI protocol and evaluated by recording the survival time according to the formula appearing in protocol 11.

[3] = system: mouse leukemia L-1210 cells; assay: Antiproliferative activity in vitro, viability of L-1210 cells in culture; type: cell-based; conditions: for antiproliferative activity compared with ara-CMP and ara-C: 72 h; for IC50: Mus musculus, L1210, 72 h, read-out: Concentration (μM) for 50 percent loss of viability at 72 hours (ED50)
Description: The antiproliferative activity of the conjugates, ara-C, ara-CMP and the steroids was determined by measuring their effects against mouse leukemia L-1210 cells in culture. The assay was performed in test tubes without agitation according to the procedure described by Hong et al. in J. Med. Chem. 16: 139 (1973). After 24, 48 and 72 h, viable cell counts were performed on the cultures which had been incubated with compounds in various concentrations and the concentration of each compound required to produce a 50 percent inhibition of growth (ED50) after 72 h was determined by interpolation using the method described by Tritsch et al. in Cancer Biochem. Biophys. 2: 87 (1977).

[4] = system: phosphodiesterase I from Crotalus adamenteus; assay: Enzymatic cleavage of the phosphodiester bond by phosphodiesterase I; type: in vitro ADME; conditions: pH 8.8, 24 h, 37° C.; for hydrolysis by phosphodiesterase I: 5 μmol conjugate, 1.5 mg enzyme
Description: (§1) Enzymatic cleavage of the phosphodiester bond of the conjugates was studied by incubating the conjugates (5 μmol) with various enzymes (1.5-3 mg) in appropriate buffer and with plasma (final volume 0.5 ml). An aliquot (200 μl) of the 24 h incubation mixtures was streaked on Whatman 3 MM paper (23×57 cm) with the authentic markers and the paper was developed in Solvent A. The bands were characterized and analyzed semi-quantitatively by UV estimation of the chromatographs. […] The conjugates also remained 60-85 percent intact during the incubation with baboon plasma at 37° C. for 24 h. From the results of these tests, conjugates of this type appear capable of serving as sustained release froms of the parent steroid and nucleoside components thereof.
The conjugate (5 μmol) was incubated with 1 M Tris-HCl, pH 8.8 (0.05 ml) and purified phosphodiesterase I from Crotalus adamenteus (1.5 mg., Sigma Chemical Co.) in 0.45 ml. of H2 O for 24 h at 37° C.

[5] = system: crude wheat germ acid phosphatase; assay: Enzymatic cleavage by acid phosphatase; type: in vitro ADME; conditions: pH 4.8, 25° C., 24 h; for percent hydrolyzed by acid phosphatase: 3 mg enzyme
Description: as §1
The conjugate (5 μmol) was incubated with 0.15 M NaOAc, pH 4.8 (0.05 ml) and crude wheat germ acid phosphatase (3 mg., Sigma Chemical Co.) in 0.45 ml. of H2 O at 25° C. for 24 h. Pred-p-ara-C (I) was 86 percent hydrolyzed, the products being pred-p-ara-C (8 percent), ara-CMP (5 percent), ara-C (42 percent) and prednisolone (45 percent). Prednisone-p-ara-C (II) was 88 percent hydrolyzed, the products being prednisone-p-ara-C (7 percent), ara-CMP (4 percent), ara-C (43 percent) and prednisone (46 percent).

[6] = Incubation with fresh baboon plasma; type: in vitro ADME; conditions: 37° C.; for metabolised at 24 h: 0.5 ml fresh baboon plasma, read-out: percent hydrolyzed in plasma; for remaining at 24 h: read-out: remaining conjugate among products
Description: as §1
The conjugate (5 μmol) was incubated with 0.5 ml of fresh baboon plasma at 37° C. for 24 h. 39 percent of the pred-p-ara-C (I) was hydrolyzed, the products being pred-p-ara-C (44 percent), ara-UMP (7 percent), ara-U (21 percent) and prednisolone (28 percent). Only 15 percent of the prednisone-p-ara-C (II) was hydrolyzed, the products being prednisone-p-ara-C (74 percent), ara-UMP (13 percent) and prednisone (13 percent).

[7] = system: crude Crotalus adamenteus venom; type: in vitro ADME; conditions: 2.5 mg crude venom, 24 h, 37° C.
Description: as §1

[8] = system: 5'-nucleotidase from Crotalus adamenteus; assay: Enzymatic cleavage by 5'-nucleotidase; type: in vitro ADME; conditions: pH 9.0, 24 h, 37° C.; for hydrolysis by 5'-nucleotidase: 2 mg enzyme
Description: as §1
The conjugate (5 μmol) was incubated with 1 M Tris-HCl, pH 9.0 and 0.05 M MgSO4 (0.05 ml) and purified 5'-nucleotidase from Crotalus adamenteus (2 mg., Sigma Chemical Co.) in 0.45 ml. of H2 O for 24 h at 37° C.

C[C@]12C=CC(=O)C=C1CC[C@@H]1[C@@H]2[C@@H](O)C[C@@]2(C)[C@H]1CC[C@]2(O)C(=O)CO[P+]([O-])(O)OC[C@H]1O[C@@H](n2ccc(N)nc2=O)[C@@H](O)[C@@H]1O (stereo partly drawn) [Pred-p-ara-C (I), 5'-(Prednisolone-21-phosphoryl)-1-β-D-arabinofuranosylcytosine]
Mean Survival Days [1]: 18.13 days | body weight lost by day 11 [1]: about 4 g | weight gained over original weight (20 g) by day 20 [1]: about 1 g | Survivors on day 35 [1]: 1 | Percent T/C [1]: 201.4% | Percent T/C ([1]; listed as I): 201% | Mean Survival Days, Treated ([2]; 25 mg/kg/day × 5 i.p.): 14.63 days | Percent T/C (mean survival days treated/control × 100) ([2]; 25 mg/kg/day × 5 i.p.): 154% | Mean Survival Days, Treated ([2]; 40 mg/kg/day × 5 i.p.): 15.25 days | Mean Survival Days, Treated ([2]; 50 mg/kg/day × 5 i.p.): 19.13 days | Mean Survival Days, Treated ([2]; 75 mg/kg/day × 5 i.p.): 16.88 days | Mean Survival Days, Treated ([2]; 100 mg/kg/day × 5 i.p.): 11.74 days | response vs control in vivo at 25 mg/kg ([2]; Mus musculus, L1210, ip): 154% | response vs control in vivo at 40 mg/kg ([2]; Mus musculus, L1210, ip, read-out: Percent T/C (mean survival days treated/control × 100), 40 mg/kg/day × 5 i.p.): 174% | response vs control in vivo at 50 mg/kg ([2]; Mus musculus, L1210, ip): 201% | response vs control in vivo at 75 mg/kg ([2]; Mus musculus, L1210, ip): 178% | response vs control in vivo at 100 mg/kg ([2]; Mus musculus, L1210, ip): 136% | ascitic fluid at the end of the dosage period (5th day) [2]: no ascitic fluid | day on which mice started to accumulate ascitic fluid [2]: 15 days | antiproliferative activity compared with ara-CMP and ara-C [3]: activity comparable to ara-CMP | IC50 [3]: 0.05 µM | hydrolysis by phosphodiesterase I [4]: hydrolyzed completely | product ara-C [4]: 10% | product ara-CMP [4]: 40% | product prednisolone or prednisone [4]: 50% | percent hydrolyzed by acid phosphatase [5]: 86% | product ara-C [5]: 42% | product ara-CMP [5]: 5% | product steroid (prednisolone or prednisone) [5]: 45% | remaining conjugate among products [5]: 8% | metabolised at 24 h [6]: 39% | product ara-U ([6]; baboon plasma, 24 h): 21% | product ara-UMP ([6]; baboon plasma, 24 h): 7% | product steroid (prednisolone or prednisone) ([6]; baboon plasma, 24 h): 28% | remaining at 24 h ([6]; baboon plasma): 44% | hydrolysis by crude snake venom [7]: hydrolyzed completely | product ara-C [7]: 50% | product steroid [7]: 50% | hydrolysis by 5'-nucleotidase [8]: hydrolyzed completely | product ara-C [8]: 50% | product prednisolone or prednisone [8]: 50%

C[C@]12C=CC(=O)C=C1CC[C@@H]1[C@@H]2C(=O)C[C@@]2(C)[C@H]1CC[C@]2(O)C(=O)CO[P+]([O-])(O)OC[C@H]1O[C@@H](n2ccc(N)nc2=O)[C@@H](O)[C@@H]1O (stereo partly drawn) [Prednisone-p-ara-C (II), 5'-(Prednisone-21-phosphoryl)-1-β-D-arabinofuranosylcytosine]
Mean Survival Days [1]: 16.50 days | body weight lost by day 11 [1]: about 4 g | Survivors on day 35 [1]: 1 | Percent T/C [1]: 183.3% | Percent T/C ([1]; listed as II): 183% | Mean Survival Days, Treated ([2]; 25 mg/kg/day × 5 i.p.): 14.63 days | Percent T/C (mean survival days treated/control × 100) ([2]; 25 mg/kg/day × 5 i.p.): 154% | Mean Survival Days, Treated ([2]; 50 mg/kg/day × 5 i.p.): 18.13 days | Percent T/C (mean survival days treated/control × 100) ([2]; 50 mg/kg/day × 5 i.p.): 210% | Mean Survival Days, Treated ([2]; 75 mg/kg/day × 5 i.p.): 14.50 days | Mean Survival Days, Treated ([2]; 100 mg/kg/day × 5 i.p.): 10.88 days | Percent T/C (mean survival days treated/control × 100) ([2]; 100 mg/kg/day × 5 i.p.): 124% | Mean Survival Days, Treated ([2]; 200 mg/kg/day × 5 i.p.): 9.13 days | response vs control in vivo at 25 mg/kg ([2]; Mus musculus, L1210, ip): 154% | response vs control in vivo at 50 mg/kg ([2]; Mus musculus, L1210, ip): 210% | response vs control in vivo at 75 mg/kg ([2]; Mus musculus, L1210, ip): 153% | response vs control in vivo at 100 mg/kg ([2]; Mus musculus, L1210, ip): 124% | response vs control in vivo at 200 mg/kg ([2]; Mus musculus, L1210, ip, read-out: Percent T/C (mean survival days treated/control × 100), 200 mg/kg/day × 5 i.p.): 104% | ascitic fluid at the end of the dosage period (5th day) [2]: no ascitic fluid | day on which mice started to accumulate ascitic fluid [2]: 15 days | antiproliferative activity compared with ara-CMP and ara-C [3]: less active than both ara-CMP and ara-C | IC50 [3]: 0.5 µM | hydrolysis by phosphodiesterase I [4]: hydrolyzed completely | product ara-C [4]: 10% | product ara-CMP [4]: 40% | product prednisolone or prednisone [4]: 50% | percent hydrolyzed by acid phosphatase [5]: 88% | product ara-C [5]: 43% | product ara-CMP [5]: 4% | product steroid (prednisolone or prednisone) [5]: 46% | remaining conjugate among products [5]: 7% | metabolised at 24 h [6]: 15% | product ara-UMP ([6]; baboon plasma, 24 h): 13% | product steroid (prednisolone or prednisone) ([6]; baboon plasma, 24 h): 13% | remaining at 24 h ([6]; baboon plasma): 74% | hydrolysis by crude snake venom [7]: hydrolyzed completely | product ara-C [7]: 50% | product steroid [7]: 50% | hydrolysis by 5'-nucleotidase [8]: hydrolyzed completely | product ara-C [8]: 50% | product prednisolone or prednisone [8]: 50%
